Data reported in the supplement of paper PMC13380429.

Experiments:
Details in all cases: 72 h
Calu-3 [1] = assay: relative viability EC50 (midpoint between 100% and the lowest measured viability); higher = less toxic
U2OS [2] = assay: as above
Calu-3 [3] = assay: cell viability relative to DMSO; higher = less toxic
HepG2 [4] = assay: as above
Caco-2 [5] = assay: as above
U2OS [6] = assay: as above
Calu-3 [7] = assay: drug sensitivity score (DSS) for viability; higher = more toxic; extreme values may be limits of the assay
HepG2 [8] = assay: as above
Caco-2 [9] = assay: as above
U2OS [10] = assay: as above
Vero E6 [11] = assay: relative viability EC50 (midpoint between 100% and the lowest measured viability); higher = less toxic
HepG2 [12] = assay: as above
Vero E6 [13] = assay: cell viability relative to DMSO; higher = less toxic
Vero E6 [14] = assay: drug sensitivity score (DSS) for viability; higher = more toxic; extreme values may be limits of the assay
Caco-2 [15] = assay: relative viability EC50 (midpoint between 100% and the lowest measured viability); higher = less toxic

| Structure (SMILES) | relative viability EC50 (Calu-3 [1]) [nM] | relative viability EC50 (U2OS [2]) [nM] | cell viability (Calu-3 [3]; 1 nM) [%] | cell viability (Calu-3 [3]; 10 nM) [%] | cell viability (Calu-3 [3]; 100 nM) [%] | cell viability (Calu-3 [3]; 1000 nM) [%] | cell viability (Calu-3 [3]; 10000 nM) [%] | cell viability (HepG2 [4]; 1 nM) [%] | cell viability (HepG2 [4]; 10 nM) [%] | cell viability (HepG2 [4]; 100 nM) [%] | cell viability (HepG2 [4]; 1000 nM) [%] | cell viability (HepG2 [4]; 10000 nM) [%] | cell viability (Caco-2 [5]; 1 nM) [%] | cell viability (Caco-2 [5]; 10 nM) [%] | cell viability (Caco-2 [5]; 100 nM) [%] | cell viability (Caco-2 [5]; 1000 nM) [%] | cell viability (Caco-2 [5]; 10000 nM) [%] | cell viability (U2OS [6]; 1 nM) [%] | cell viability (U2OS [6]; 10 nM) [%] | cell viability (U2OS [6]; 100 nM) [%] | cell viability (U2OS [6]; 1000 nM) [%] | cell viability (U2OS [6]; 10000 nM) [%] | drug sensitivity score (Calu-3 [7]) | drug sensitivity score (HepG2 [8]) | drug sensitivity score (Caco-2 [9]) | drug sensitivity score (U2OS [10]) | relative viability EC50 (Vero E6 [11]) [nM] | relative viability EC50 (HepG2 [12]) [nM] | cell viability (Vero E6 [13]; 1 nM) [%] | cell viability (Vero E6 [13]; 10 nM) [%] | cell viability (Vero E6 [13]; 100 nM) [%] | cell viability (Vero E6 [13]; 1000 nM) [%] | cell viability (Vero E6 [13]; 10000 nM) [%] | drug sensitivity score (Vero E6 [14]) | relative viability EC50 (Caco-2 [15]) [nM] |
| --- | --- | --- | --- | --- | --- | --- | --- | --- | --- | --- | --- | --- | --- | --- | --- | --- | --- | --- | --- | --- | --- | --- | --- | --- | --- | --- | --- | --- | --- | --- | --- | --- | --- | --- | --- |
| O=C(Nc1ccc(OC(F)(F)F)cc1)c1sccc1NCc1ccnc2ccccc12 [OSI-930] | > 10000 | > 10000 | 91.6 | 111 | 93.6 | 112 | 78 | 103 | 98.5 | 91.3 | 89 | 67 | 107 | 102 | 94.1 | 97.9 | 69.3 | 97.8 | 101 | 99.8 | 104 | 92.2 | 0.4 | 2.5 | 1.7 | 0 |  |  |  |  |  |  |  |  |  |
| O=C1c2ccccc2-c2c(NCCc3ccccc3)c(=O)[nH]c3cccc1c23 [BRD7389] |  | 795 | 97.4 | 100 | 97.6 | 83.1 | 72.5 | 98.8 | 101 | 99 | 45.7 | 34.8 | 103 | 102 | 97.3 | 71.6 | 61.9 | 97.2 | 102 | 95.5 | 68.5 | 44.5 | 2.8 | 10.1 | 5.3 | 6.7 | 1060 | 525 | 102 | 102 | 101 | 69.1 | 33.5 | 7.7 |  |
| COc1cccc2c1c(O)c(C(=O)N(C)c1ccc(C(F)(F)F)cc1)c(=O)n2C [tasquinimod] |  |  |  |  |  |  |  | 114 | 104 | 105 | 98.9 | 102 |  |  |  |  |  |  |  |  |  |  |  | 0 |  |  | > 10000 | > 10000 | 94.9 | 98.9 | 96.7 | 93 | 93.9 | 0 |  |
| O=C(O)[C@]1(Cc2cccc(Nc3nccs3)n2)CC[C@@H](Oc2cccc(Cl)c2F)CC1 [MK-5108] | > 10000 |  | 98.6 | 90.3 | 89.1 | 88 | 76.8 | 111 | 106 | 99.3 | 62.2 | 40.2 | 95.6 | 100 | 90.2 | 76.2 | 70.7 | 97.9 | 100 | 94.5 | 95.1 | 73.3 | 2.4 | 7.8 | 4.6 | 1.8 | > 10000 | 787 | 97.3 | 100 | 100 | 94.6 | 79.5 | 1.3 |  |
| COc1ccc(C(=O)N2CCCc3cc(C4=NNC(=O)SC4C)ccc32)cc1OC (centres undefined) |  | > 10000 | 97.5 | 93.4 | 101 | 87.7 | 70.1 | 83.4 | 80.2 | 95.9 | 90.1 | 81.2 | 95.4 | 94.2 | 89.8 | 83.7 | 71.5 | 96.2 | 104 | 103 | 96.8 | 90.2 | 2.9 | 0 | 3.2 | 0 |  | > 10000 | 103 | 100 | 102 | 83.7 | 67.7 | 3.5 |  |
| Cc1cccc(C(=O)O)c1O [hydroxytoluic-acid] |  | > 10000 |  |  |  |  |  | 90.6 | 93.6 | 87.1 | 88.5 | 104 |  |  |  |  |  | 96.8 | 99.3 | 102 | 108 | 104 |  | 0 |  | 0 | > 10000 | > 10000 | 108 | 104 | 104 | 105 | 99 | 0 |  |
| CCOC(=O)Nc1cc(-c2ccc(C)c(NS(C)(=O)=O)c2)nn2c(C)nnc12 [bromosporine] | 624 | 1570 | 96.8 | 88 | 80.4 | 76.3 | 37.8 | 101 | 98.9 | 102 | 60.8 | 19.5 | 95.5 | 101 | 104 | 81.3 | 55.8 | 96.2 | 99.2 | 91.5 | 79.2 | 18.5 | 7.9 | 9.4 | 4.8 | 7.6 | 1050 | 1020 | 95.7 | 101 | 94.7 | 55.5 | 6.3 | 10.4 |  |
| S=C(NCc1ccc2c(c1)OCO2)N1CCN(c2ncnc3c2oc2ccccc23)CC1 [amuvatinib] | > 10000 |  | 98.4 | 92.7 | 101 | 94.1 | 78.7 | 100 | 101 | 96.2 | 84 | 19 | 95.2 | 90.6 | 97.1 | 84.5 | 68.3 | 104 | 96.6 | 100 | 95 | 65.1 | 1.4 | 7.1 | 2.8 | 2.5 |  | 1750 | 102 | 104 | 97.9 | 90.4 | 67.6 | 2.8 |  |
| Cc1cc(-c2ccc(/N=N/c3ccc4c(S(=O)(=O)O)cc(S(=O)(=O)O)c(N)c4c3O)c(C)c2)ccc1/N=N/c1ccc2c(S(=O)(=O)O)cc(S(=O)(=O)O)c(N)c2c1O [evans-blue] |  |  | 92.8 | 101 | 105 | 102 | 71.9 | 102 | 89.6 | 84.2 | 86.5 | 52.6 | 96.7 | 88.9 | 104 | 97.9 | 51.1 | 99 | 98.6 | 95.1 | 86.3 | 53.7 | 1 | 4.9 | 2.8 | 4.2 | 1920 |  | 103 | 106 | 94 | 91.6 | 47.9 | 4.2 |  |
| O=C(O)CCC(=O)c1ccc(-c2ccccc2)cc1 [fenbufen] |  |  |  |  |  |  |  |  |  |  |  |  |  |  |  |  |  |  |  |  |  |  | 0 | 0 |  | 0 |  |  |  |  |  |  |  | 0 |  |
| COc1cc2ncnc(Oc3cccc(NC(=O)Nc4cc(C(C)(C)C(F)(F)F)on4)c3)c2cc1OC |  |  |  |  |  |  |  | 114 | 93.9 | 110 | 93.7 | 59.8 | 102 | 94.1 | 97.5 | 93.2 | 93.8 |  |  |  |  |  |  | 3 | 0 |  | > 10000 |  | 100 | 97.1 | 108 | 108 | 88.3 | 0 | > 10000 |
| O=C(NC[C@H](O)CO)c1ccncc1Nc1ccc(I)cc1F | 104 | 2200 | 96.8 | 83.1 | 67.3 | 51 | 31.9 | 102 | 62.9 | 35 | 20.5 | 15.8 | 92.8 | 93.2 | 81.7 | 73 | 61.7 | 94.6 | 94.5 | 91.6 | 91.8 | 29.9 | 14.8 | 27.2 | 6.9 | 5.2 |  | 17.8 | 98.2 | 85.4 | 67.4 | 52 | 52.7 | 13.5 |  |
| N#Cc1cc2c(OCC(O)CN3CCN(C(c4ccccc4)c4ccccc4)CC3)cccc2[nH]1 (centres undefined) | > 10000 | > 10000 | 105 | 93.4 | 95.2 | 97.8 | 95.7 | 83.5 | 96.1 | 96.8 | 101 | 38.9 | 106 | 92.7 | 112 | 92.9 | 68.3 | 96.3 | 101 | 102 | 100 | 92.5 | 0 | 3.2 | 2.5 | 0 |  | 3300 | 101 | 103 | 95.5 | 98.9 | 53.5 | 2.5 |  |
| CC(C)=CCC/C(C)=C/CNCCNC1C2CC3CC(C2)CC1C3 (centres undefined) [SQ-109] | > 10000 | > 10000 | 94.2 | 111 | 106 | 106 | 94 | 94.3 | 103 | 110 | 103 | 86.3 | 92.5 | 107 | 81.7 | 90.6 | 74.2 | 102 | 104 | 99.5 | 103 | 93.6 | 0 | 0.1 | 2.4 | 0 | > 10000 | > 10000 | 103 | 95.8 | 105 | 102 | 88.8 | 0 |  |
| Cc1cc(Nc2nc(N[C@@H](C)c3ccc(F)cc3)c(C#N)cc2F)n[nH]1 [AZ960] | 1510 | 1330 | 118 | 103 | 96.1 | 83.9 | 38.9 | 111 | 105 | 96.7 | 43.2 | 33.6 | 112 | 109 | 118 | 77.8 | 51.8 | 104 | 101 | 104 | 76.3 | 27.8 | 5.8 | 10.9 | 5.4 | 7.4 | 883 | 422 | 99.3 | 99.6 | 100 | 65.9 | 40.9 | 7.4 |  |
